Experimental data published in ChEMBL document CHEMBL1201862, “PubChem BioAssay data set” (2004).
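Assay format: 96-well plates, 48-hour exposure. At the GI50, growth is halved.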 Activity calls are given as the source filed them. Cut-off read from the data, not from the text of the source: active = GI50 up to about 1.1 µM and inactive = higher.

What was measured:
Experiment in all cases: inhibition of tumour cell growth, NCI panel, 48 h
SF-295 = test system: SF-295
SK-OV-3 = test system: SK-OV-3
SNB-75 = test system: SNB-75
HT-29 = test system: HT-29
CCRF-CEM = test system: CCRF-CEM
SK-MEL-2 = test system: SK-MEL-2
UACC-257 = test system: UACC-257
A549 = test system: A549
HOP-92 = test system: HOP-92
U-251 = test system: U-251
OVCAR-5 = test system: OVCAR-5
Hs-578T = test system: Hs-578T
HCC 2998 = test system: HCC 2998
KM12 = test system: KM12
OVCAR-3 = test system: OVCAR-3
MOLT-4 = test system: MOLT-4
UACC-62 = test system: UACC-62
SR = test system: SR
COLO 205 = test system: COLO 205

SMILES | GI50 (SF-295) | GI50 (SK-OV-3) | GI50 (SNB-75) | GI50 (HT-29) | GI50 (CCRF-CEM) | GI50 (SK-MEL-2) | GI50 (UACC-257) | GI50 (A549) | GI50 (HOP-92) | GI50 (U-251) | GI50 (OVCAR-5) | GI50 (Hs-578T) | GI50 (HCC 2998) | GI50 (KM12) | GI50 (OVCAR-3) | GI50 (MOLT-4) | GI50 (UACC-62) | GI50 (SR) | GI50 (COLO 205)
O=C(NNC(=O)c1ccncc1)C(=O)Nc1cc(Cl)c(Cl)cc1Cl | > 100 µM (inactive) | > 100 µM (inactive) | > 100 µM (inactive) | > 100 µM (inactive) | > 10 µM (inactive) | > 100 µM (inactive) | > 100 µM (inactive) | > 100 µM (inactive) | > 100 µM (inactive) | > 100 µM (inactive) | > 100 µM (inactive) | > 100 µM (inactive) | 21.5 µM (inactive) | > 100 µM (inactive) | > 100 µM (inactive) | > 100 µM (inactive) | > 100 µM (inactive) |  | 
CNC(=O)C(C)C1C(=O)/C(=C(O)/C=C\C(C)=C\C(C)C2OC3(C)OC(C=CC34CO4)C2C)C(=O)N1C1CCC(O)C(C)O1 (stereo not drawn) |  | > 100 µM (inactive) | > 100 µM (inactive) | > 100 µM (inactive) | > 100 µM (inactive) | > 100 µM (inactive) | > 100 µM (inactive) | > 100 µM (inactive) |  | > 100 µM (inactive) | > 100 µM (inactive) |  | > 100 µM (inactive) | > 100 µM (inactive) | > 100 µM (inactive) | > 100 µM (inactive) | > 100 µM (inactive) | > 100 µM (inactive) | > 100 µM (inactive)
C/C=C(/CBr)CCC(Br)C(C)(C)Cl.C/C=C(\CBr)CCC(Br)C(C)(C)Cl (stereo not drawn) | > 10 µM (inactive) | > 10 µM (inactive) | > 10 µM (inactive) | > 10 µM (inactive) | > 10 µM (inactive) | > 10 µM (inactive) | > 10 µM (inactive) | > 10 µM (inactive) | > 10 µM (inactive) | > 10 µM (inactive) | > 10 µM (inactive) | > 10 µM (inactive) | > 10 µM (inactive) | > 10 µM (inactive) | > 10 µM (inactive) | > 10 µM (inactive) |  |  | > 10 µM (inactive)
Cc1nc(=O)n2c(C)n[nH]c2c1C(=O)Nc1cc(Cl)cc(Cl)c1 | 31.4 µM (inactive) | 29 µM (inactive) | 37.2 µM (inactive) | 31.3 µM (inactive) | 20.2 µM (inactive) |  |  | 19.2 µM (inactive) | 17.5 µM (inactive) | 21.1 µM (inactive) | 65.3 µM (inactive) |  |  | 31.9 µM (inactive) | 14.2 µM (inactive) | 26.9 µM (inactive) | 16.2 µM (inactive) | 19.9 µM (inactive) | 26.7 µM (inactive)
COC(=O)C1Cc2c(OC)ccc(OC)c2CC(C(=O)OC)C1=O (stereo not drawn) | > 100 µM (inactive) | > 100 µM (inactive) | > 100 µM (inactive) | > 100 µM (inactive) | > 100 µM (inactive) |  | > 100 µM (inactive) | > 100 µM (inactive) | 44 µM (inactive) | > 100 µM (inactive) | > 100 µM (inactive) | > 100 µM (inactive) | > 100 µM (inactive) | > 100 µM (inactive) | > 100 µM (inactive) | > 100 µM (inactive) | > 100 µM (inactive) |  | > 100 µM (inactive)
CC1CCC2C(C(=O)O[C@H]3C4C=CO[C@@H](OC5OC(CO)C(O)C(O)C5O)C4[C@@]4(CO)O[C@@H]34)=CO[C@@H](OC3OC(CO)C(O)C(O)C3O)C12 (stereo partly drawn) | > 10 µM (inactive) | > 10 µM (inactive) | > 10 µM (inactive) | > 10 µM (inactive) | > 10 µM (inactive) | > 10 µM (inactive) | > 10 µM (inactive) | > 10 µM (inactive) | > 10 µM (inactive) | > 10 µM (inactive) | > 10 µM (inactive) | > 10 µM (inactive) | > 10 µM (inactive) | > 10 µM (inactive) | > 10 µM (inactive) | > 10 µM (inactive) | > 10 µM (inactive) |  | > 10 µM (inactive)
COc1cc2c3c(c4cc(OC)c(OC)cc4c2cc1OC)[C@H](O)[C@@H]1CCCN1C3 | < 0.0222 µM (active) | < 0.0237 µM (active) | < 0.0312 µM (active) | < 0.0191 µM (active) | < 0.0272 µM (active) | < 0.0167 µM (active) | < 0.0383 µM (active) | < 0.0254 µM (active) | < 0.0478 µM (active) | < 0.0245 µM (active) | < 0.0316 µM (active) |  | < 0.0243 µM (active) | < 0.0232 µM (active) | 0.0384 µM (active) | < 0.01 µM (active) | < 0.0337 µM (active) | 0.029 µM (active) | < 0.0179 µM (active)
CCC[C@@H]1C(=O)N=C(N)N1C(=O)OCc1ccccc1 | > 100 µM (inactive) |  | > 100 µM (inactive) | > 100 µM (inactive) |  | > 100 µM (inactive) | > 100 µM (inactive) |  |  | > 100 µM (inactive) | > 100 µM (inactive) | > 100 µM (inactive) | > 100 µM (inactive) | > 100 µM (inactive) | > 100 µM (inactive) | > 100 µM (inactive) | > 100 µM (inactive) | > 100 µM (inactive) | > 100 µM (inactive)
